Results on eleven compounds are retold here after ChEMBL document CHEMBL3991601, “The target landscape of clinical kinase drugs” (Science, 2017).

Assay [1] has as its target Epithelial discoidin domain-containing receptor 1 (Homo sapiens, UniProt Q08345).
Another assay addresses LIM domain kinase 1 (Homo sapiens, UniProt P53667).
Assay [2] has as its target Cyclin-dependent kinase 7 (Homo sapiens, UniProt P50613).
The target of assay [3] is Serine/threonine-protein kinase SIK2 (Homo sapiens, UniProt Q9H0K1).
In the next assay the target is T1, Activin receptor type-1B (Homo sapiens, UniProt P36896).
T1 sequence (P36896 whole entry): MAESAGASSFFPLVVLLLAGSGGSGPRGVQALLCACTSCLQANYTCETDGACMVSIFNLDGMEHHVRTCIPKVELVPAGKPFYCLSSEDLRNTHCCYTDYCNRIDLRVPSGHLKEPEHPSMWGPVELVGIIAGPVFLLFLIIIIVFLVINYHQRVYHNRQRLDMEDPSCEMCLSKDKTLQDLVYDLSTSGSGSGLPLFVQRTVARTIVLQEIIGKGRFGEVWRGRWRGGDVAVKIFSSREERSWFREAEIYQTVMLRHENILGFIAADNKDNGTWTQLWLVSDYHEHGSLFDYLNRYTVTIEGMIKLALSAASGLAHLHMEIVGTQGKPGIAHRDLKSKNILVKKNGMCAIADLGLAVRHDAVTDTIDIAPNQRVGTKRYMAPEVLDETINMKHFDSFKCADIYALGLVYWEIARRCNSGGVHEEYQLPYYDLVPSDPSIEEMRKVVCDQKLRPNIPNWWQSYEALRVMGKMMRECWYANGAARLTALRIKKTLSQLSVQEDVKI

The target in assay [4] is T2, Interleukin-1 receptor-associated kinase 3 (Homo sapiens, UniProt Q9Y616).
T2 sequence (Q9Y616 whole entry): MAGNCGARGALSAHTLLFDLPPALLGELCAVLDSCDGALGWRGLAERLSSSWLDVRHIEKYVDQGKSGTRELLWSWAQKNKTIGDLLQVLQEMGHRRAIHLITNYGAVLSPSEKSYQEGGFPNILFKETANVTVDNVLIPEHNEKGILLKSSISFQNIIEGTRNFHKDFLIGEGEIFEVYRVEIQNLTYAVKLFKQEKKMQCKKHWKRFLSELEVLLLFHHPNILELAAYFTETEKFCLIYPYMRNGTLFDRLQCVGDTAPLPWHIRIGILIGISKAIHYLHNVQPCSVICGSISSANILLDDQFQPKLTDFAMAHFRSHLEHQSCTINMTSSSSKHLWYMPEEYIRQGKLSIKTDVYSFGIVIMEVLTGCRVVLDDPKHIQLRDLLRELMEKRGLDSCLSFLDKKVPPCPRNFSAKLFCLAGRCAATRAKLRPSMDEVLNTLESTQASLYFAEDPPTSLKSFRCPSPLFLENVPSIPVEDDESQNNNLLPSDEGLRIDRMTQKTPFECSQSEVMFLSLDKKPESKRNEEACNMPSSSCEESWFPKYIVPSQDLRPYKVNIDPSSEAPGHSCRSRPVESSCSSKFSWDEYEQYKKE

For assay [5], the target named is Serine/threonine-protein kinase MRCK alpha (Homo sapiens, UniProt Q5VT25).
Assay [6] addresses Cyclin-dependent kinase 3 (Homo sapiens, UniProt Q00526).
For assay [7], the target named is Casein kinase I isoform gamma-1 (Homo sapiens, UniProt Q9HCP0).
Assay [8] has as its target T3, Acyl-CoA dehydrogenase family member 11 (Homo sapiens, UniProt Q709F0).
T3 sequence (Q709F0 whole entry): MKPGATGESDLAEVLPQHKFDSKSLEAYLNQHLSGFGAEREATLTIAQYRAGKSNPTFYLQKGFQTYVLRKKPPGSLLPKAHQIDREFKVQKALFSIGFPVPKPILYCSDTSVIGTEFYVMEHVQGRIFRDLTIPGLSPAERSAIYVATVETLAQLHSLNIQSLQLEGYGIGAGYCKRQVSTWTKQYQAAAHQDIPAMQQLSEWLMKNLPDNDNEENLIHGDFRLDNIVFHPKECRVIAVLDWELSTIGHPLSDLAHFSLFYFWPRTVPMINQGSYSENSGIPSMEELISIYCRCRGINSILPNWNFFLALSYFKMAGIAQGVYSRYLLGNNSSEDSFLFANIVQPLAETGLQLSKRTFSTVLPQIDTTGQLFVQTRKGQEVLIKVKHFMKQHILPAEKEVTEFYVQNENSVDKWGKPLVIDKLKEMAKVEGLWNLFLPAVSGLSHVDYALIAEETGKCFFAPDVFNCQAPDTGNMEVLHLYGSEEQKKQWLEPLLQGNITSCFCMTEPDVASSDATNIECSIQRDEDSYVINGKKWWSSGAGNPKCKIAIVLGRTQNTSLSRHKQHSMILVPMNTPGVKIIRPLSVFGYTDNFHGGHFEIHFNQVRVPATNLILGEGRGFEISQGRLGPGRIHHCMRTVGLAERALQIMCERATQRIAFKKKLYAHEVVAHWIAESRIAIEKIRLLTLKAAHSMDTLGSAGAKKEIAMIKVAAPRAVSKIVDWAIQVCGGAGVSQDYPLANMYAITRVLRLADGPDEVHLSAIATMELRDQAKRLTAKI

Assay [9] addresses Bone morphogenetic protein receptor type-1B (Homo sapiens, UniProt O00238).

Calls of active or inactive are those of the source. Rule as the data show it, for most assays here: actives have a measured Kd and inactives only a lower limit.
Also: in the data inactive means no Kd found up to 30 µM.

Sequence of Bone morphogenetic protein receptor type-1B (O00238 whole entry): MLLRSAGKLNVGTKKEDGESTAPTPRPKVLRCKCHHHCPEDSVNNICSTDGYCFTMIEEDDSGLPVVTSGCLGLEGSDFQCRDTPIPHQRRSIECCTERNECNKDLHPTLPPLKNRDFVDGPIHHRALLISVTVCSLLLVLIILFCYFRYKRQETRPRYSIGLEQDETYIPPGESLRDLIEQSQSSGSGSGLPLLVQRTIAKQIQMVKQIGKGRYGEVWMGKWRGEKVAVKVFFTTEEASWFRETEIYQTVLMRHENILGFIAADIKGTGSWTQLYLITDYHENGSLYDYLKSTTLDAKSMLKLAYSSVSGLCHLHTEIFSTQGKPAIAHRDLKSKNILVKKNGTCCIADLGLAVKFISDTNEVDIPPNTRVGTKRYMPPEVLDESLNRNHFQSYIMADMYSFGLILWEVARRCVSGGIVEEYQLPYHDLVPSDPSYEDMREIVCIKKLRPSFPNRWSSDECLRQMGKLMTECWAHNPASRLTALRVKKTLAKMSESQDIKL
Sequence of LIM domain kinase 1 (P53667 whole entry, the tested form may be a part): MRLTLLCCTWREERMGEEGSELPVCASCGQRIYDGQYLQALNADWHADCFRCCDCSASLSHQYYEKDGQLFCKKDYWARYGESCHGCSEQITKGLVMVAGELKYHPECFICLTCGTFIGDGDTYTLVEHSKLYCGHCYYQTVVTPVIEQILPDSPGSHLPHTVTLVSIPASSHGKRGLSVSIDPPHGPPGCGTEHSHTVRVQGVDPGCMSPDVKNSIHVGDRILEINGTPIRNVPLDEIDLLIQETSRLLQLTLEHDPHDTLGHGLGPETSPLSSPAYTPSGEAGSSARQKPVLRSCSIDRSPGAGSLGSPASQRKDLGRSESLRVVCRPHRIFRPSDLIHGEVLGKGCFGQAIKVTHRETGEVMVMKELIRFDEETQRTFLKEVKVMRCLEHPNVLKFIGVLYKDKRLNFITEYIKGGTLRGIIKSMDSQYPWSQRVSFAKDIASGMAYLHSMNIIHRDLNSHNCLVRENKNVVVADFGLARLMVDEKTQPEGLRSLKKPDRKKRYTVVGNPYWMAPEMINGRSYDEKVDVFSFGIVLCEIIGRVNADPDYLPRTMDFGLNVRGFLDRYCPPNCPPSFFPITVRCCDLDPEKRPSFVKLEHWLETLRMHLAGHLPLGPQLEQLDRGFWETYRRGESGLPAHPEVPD
Sequence of Serine/threonine-protein kinase MRCK alpha (Q5VT25 whole entry): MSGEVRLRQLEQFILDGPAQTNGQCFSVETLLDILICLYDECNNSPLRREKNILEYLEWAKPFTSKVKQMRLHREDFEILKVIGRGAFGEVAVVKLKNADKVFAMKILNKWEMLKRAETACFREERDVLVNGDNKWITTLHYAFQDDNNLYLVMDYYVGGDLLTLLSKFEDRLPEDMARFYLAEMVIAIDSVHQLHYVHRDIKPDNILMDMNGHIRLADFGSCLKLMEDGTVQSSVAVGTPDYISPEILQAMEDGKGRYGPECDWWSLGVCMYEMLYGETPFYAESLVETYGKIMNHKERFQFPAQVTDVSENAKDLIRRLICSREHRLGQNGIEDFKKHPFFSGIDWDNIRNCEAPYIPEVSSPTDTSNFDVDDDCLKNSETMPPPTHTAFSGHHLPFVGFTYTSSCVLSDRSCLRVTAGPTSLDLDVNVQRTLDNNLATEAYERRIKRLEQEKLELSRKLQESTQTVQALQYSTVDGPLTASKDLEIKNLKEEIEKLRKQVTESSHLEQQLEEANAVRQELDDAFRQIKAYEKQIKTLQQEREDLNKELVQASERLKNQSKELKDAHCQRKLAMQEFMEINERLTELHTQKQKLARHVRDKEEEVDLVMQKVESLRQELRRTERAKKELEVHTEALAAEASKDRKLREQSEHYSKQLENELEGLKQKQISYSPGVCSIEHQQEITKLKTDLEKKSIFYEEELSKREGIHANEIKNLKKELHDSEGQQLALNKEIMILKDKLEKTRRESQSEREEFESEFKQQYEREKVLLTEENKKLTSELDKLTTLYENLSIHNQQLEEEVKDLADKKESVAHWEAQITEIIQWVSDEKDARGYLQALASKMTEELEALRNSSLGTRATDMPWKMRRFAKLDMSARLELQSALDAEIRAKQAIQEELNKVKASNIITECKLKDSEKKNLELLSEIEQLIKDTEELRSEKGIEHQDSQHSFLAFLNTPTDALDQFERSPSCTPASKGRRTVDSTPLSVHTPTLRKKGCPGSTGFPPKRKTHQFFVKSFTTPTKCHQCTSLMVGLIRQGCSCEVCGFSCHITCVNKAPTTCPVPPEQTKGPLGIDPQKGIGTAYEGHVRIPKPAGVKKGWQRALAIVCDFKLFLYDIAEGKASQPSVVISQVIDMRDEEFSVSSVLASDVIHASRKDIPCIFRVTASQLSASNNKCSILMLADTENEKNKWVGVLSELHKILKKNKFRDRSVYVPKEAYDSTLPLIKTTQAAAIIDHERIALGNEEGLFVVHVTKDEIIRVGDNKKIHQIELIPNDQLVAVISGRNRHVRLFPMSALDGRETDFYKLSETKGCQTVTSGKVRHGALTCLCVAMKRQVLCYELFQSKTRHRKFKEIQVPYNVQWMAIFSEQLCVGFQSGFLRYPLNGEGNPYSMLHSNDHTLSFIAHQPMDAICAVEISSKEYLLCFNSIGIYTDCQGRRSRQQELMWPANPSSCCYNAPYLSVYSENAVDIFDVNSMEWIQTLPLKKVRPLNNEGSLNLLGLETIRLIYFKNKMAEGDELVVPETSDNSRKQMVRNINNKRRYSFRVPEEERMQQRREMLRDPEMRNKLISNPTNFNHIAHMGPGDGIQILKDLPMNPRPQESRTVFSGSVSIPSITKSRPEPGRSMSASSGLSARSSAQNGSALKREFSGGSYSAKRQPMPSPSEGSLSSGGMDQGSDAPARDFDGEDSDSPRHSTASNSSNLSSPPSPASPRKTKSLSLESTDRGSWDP
Sequence of Casein kinase I isoform gamma-1 (Q9HCP0 whole entry, canonical isoform): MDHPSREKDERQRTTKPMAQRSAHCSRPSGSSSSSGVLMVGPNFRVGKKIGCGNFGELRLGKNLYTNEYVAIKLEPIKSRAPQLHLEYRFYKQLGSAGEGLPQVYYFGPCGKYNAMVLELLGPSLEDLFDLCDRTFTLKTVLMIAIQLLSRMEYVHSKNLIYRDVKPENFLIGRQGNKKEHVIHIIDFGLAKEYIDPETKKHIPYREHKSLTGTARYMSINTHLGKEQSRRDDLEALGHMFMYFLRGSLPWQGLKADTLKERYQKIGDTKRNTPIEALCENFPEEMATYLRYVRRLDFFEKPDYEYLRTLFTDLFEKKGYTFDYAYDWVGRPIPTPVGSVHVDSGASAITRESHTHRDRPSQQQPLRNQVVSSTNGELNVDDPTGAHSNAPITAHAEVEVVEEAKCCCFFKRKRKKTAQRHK
Sequence of Cyclin-dependent kinase 3 (Q00526 whole entry, canonical isoform): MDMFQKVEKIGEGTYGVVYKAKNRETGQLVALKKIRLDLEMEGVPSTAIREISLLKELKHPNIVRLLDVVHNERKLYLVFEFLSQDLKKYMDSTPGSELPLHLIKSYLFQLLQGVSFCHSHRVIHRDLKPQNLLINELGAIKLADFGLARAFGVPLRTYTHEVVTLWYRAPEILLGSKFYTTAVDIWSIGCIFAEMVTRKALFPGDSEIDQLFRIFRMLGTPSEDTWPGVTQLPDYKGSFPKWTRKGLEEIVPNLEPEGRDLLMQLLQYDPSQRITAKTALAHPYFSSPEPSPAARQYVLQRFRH
Sequence of Cyclin-dependent kinase 7 (P50613 whole entry): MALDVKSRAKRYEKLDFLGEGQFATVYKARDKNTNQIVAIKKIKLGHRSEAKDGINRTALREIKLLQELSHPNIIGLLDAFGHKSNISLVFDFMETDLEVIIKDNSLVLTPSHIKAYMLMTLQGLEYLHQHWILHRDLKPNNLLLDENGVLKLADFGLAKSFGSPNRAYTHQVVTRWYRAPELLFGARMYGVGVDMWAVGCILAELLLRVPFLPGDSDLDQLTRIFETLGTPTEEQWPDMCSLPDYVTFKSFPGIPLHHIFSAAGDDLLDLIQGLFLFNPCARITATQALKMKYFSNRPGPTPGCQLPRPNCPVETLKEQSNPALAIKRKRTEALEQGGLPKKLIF
Sequence of Serine/threonine-protein kinase SIK2 (Q9H0K1 whole entry): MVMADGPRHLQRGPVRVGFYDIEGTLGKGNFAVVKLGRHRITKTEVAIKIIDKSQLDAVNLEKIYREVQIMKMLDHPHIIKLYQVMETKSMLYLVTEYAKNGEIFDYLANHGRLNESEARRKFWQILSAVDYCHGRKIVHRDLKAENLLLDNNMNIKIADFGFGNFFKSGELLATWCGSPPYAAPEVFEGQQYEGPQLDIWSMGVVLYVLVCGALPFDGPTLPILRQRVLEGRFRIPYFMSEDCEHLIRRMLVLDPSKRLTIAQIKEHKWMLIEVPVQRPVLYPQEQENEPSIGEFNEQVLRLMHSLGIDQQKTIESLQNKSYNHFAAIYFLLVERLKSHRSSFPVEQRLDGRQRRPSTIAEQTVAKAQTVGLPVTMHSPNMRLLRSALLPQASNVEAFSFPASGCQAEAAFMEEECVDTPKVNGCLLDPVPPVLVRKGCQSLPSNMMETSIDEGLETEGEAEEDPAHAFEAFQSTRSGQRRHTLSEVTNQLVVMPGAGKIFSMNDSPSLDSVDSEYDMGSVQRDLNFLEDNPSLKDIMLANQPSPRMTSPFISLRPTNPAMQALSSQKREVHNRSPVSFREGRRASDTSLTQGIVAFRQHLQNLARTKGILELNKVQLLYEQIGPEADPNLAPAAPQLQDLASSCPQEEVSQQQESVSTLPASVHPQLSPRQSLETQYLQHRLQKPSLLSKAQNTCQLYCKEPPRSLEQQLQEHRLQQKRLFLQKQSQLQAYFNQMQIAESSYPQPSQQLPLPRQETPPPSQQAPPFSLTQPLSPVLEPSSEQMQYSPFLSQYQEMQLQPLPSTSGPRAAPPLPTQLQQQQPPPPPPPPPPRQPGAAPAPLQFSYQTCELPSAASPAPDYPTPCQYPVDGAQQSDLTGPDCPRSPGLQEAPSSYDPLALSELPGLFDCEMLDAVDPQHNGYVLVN

By Kd is commonly meant the concentration at which binding is half-saturated. On to `O[C@H]1CC[C@H](Nc2ncc3nc(Nc4c(F)cc(F)cc4F)n([C@H]4CCOC4)c3n2)CC1` [TANZISERTIB], for which the Kd in assay [1] was > 30 µM (inactive); at LIM domain kinase 1, 2.17 µM (active); in [2] it was > 30 µM (inactive); in assay [3], > 30 µM (inactive); at Activin receptor type-1B, > 30 µM (inactive); in assay [4] it was > 30 µM (inactive). Further, the Kd in assay [5], in [6], in assay [7], in assay [8] and in assay [9] was > 30 µM (inactive) each time.
As for `COc1cccc2cc(-c3nc([C@H]4CC[C@H](C(=O)O)CC4)n4ncnc(N)c34)[nH]c12` [OSI-027], the Kd in assay [1] is > 30 µM (inactive); on LIM domain kinase 1 it was > 30 µM (inactive); in assay [2], > 30 µM (inactive); in assay [3], > 30 µM (inactive); at Activin receptor type-1B it was 0.549 µM (active); in [4], > 30 µM (inactive). Also, the Kd in assay [5], in assay [6], in [7], in assay [8] and in [9] was > 30 µM (inactive) throughout.
For `c1cc(OCCN2CCCCC2)cc(-c2n[nH]c3ccc(-c4nc[nH]n4)cc23)c1` [CC-401], the Kd (in assay [1]; on LIM domain kinase 1; in [2]; in assay [3]; at Activin receptor type-1B; in assay [4]) was > 30 µM (inactive) throughout. The Kd in assay [5] is > 30 µM (inactive); in [6], > 30 µM (inactive); in [7] it was 0.282 µM (active); in assay [8], > 30 µM (inactive); in assay [9], > 30 µM (inactive).
Regarding `COc1cc2ncnc(Nc3ccc(O)cc3)c2cc1OC` [WHI-P131], the Kd (in assay [1]; on LIM domain kinase 1; in assay [2]; in assay [3]; on Activin receptor type-1B; in [4]) was > 30 µM (inactive) throughout. Also, the Kd in assay [5], in assay [6], in [7], in assay [8] and in assay [9] was > 30 µM (inactive) each time.
In the case of `O=C(Nc1ccc(OC(F)(F)F)cc1)c1sccc1NCc1ccnc2ccccc12` [OSI-930], the Kd (in assay [1]; on LIM domain kinase 1; in assay [2]; in [3]; at Activin receptor type-1B; in assay [4]) was > 30 µM (inactive) throughout. In addition, the Kd in [5], in assay [6], in assay [7], in assay [8] and in assay [9] was > 30 µM (inactive) throughout.
Regarding `CC[C@@](C)(Nc1ccnc(-c2c[nH]c3ncccc23)n1)C(=O)NCC(F)(F)F` [DECERNOTINIB], the Kd (in assay [1]; at LIM domain kinase 1; in assay [2]; in assay [3]; on Activin receptor type-1B; in assay [4]) was > 30 µM (inactive) throughout. Besides, the Kd in [5] is 0.561 µM (active); in assay [6] it was > 30 µM (inactive); in [7], > 30 µM (inactive); in assay [8], > 30 µM (inactive); in assay [9] it was > 30 µM (inactive).
With `O=S(=O)(c1cccc2c(O)nccc12)N1CCCNCC1` [HYDROXYFASUDIL], the Kd (in assay [1]; on LIM domain kinase 1; in [2]; in assay [3]; at Activin receptor type-1B; in [4]) was > 30 µM (inactive) each time. For the same compound, the Kd in assay [5], in assay [6], in [7], in [8] and in assay [9] was > 30 µM (inactive) throughout.
Consider `CN1CCN(c2nc(C3=C(c4c[nH]c5ccccc45)C(=O)NC3=O)c3ccccc3n2)CC1` [SOTRASTAURIN], for which the Kd (in assay [1]; on LIM domain kinase 1; in assay [2]; in assay [3]; at Activin receptor type-1B; in [4]) was > 30 µM (inactive) throughout. Further, the Kd in [5], in [6], in assay [7] and in assay [9] was > 30 µM (inactive) each time.
With `C[C@@H]1COC(Nc2ccc3ncnc(Nc4ccc(OCc5nccs5)c(Cl)c4)c3c2)=N1` [VARLITINIB], the Kd (in assay [1]; on LIM domain kinase 1; in assay [2]; in assay [3]; at Activin receptor type-1B; in assay [4]) was > 30 µM (inactive) in each case. The Kd in assay [5], in [6], in assay [7], in [8] and in [9] was > 30 µM (inactive) in each case.
On to `NC(=O)c1ccc(N(C(N)=O)c2c(F)cccc2F)nc1-c1ccc(F)cc1F` [VX-702], for which the Kd (in [1]; on LIM domain kinase 1; in assay [2]; in [3]; on Activin receptor type-1B; in assay [4]) was > 30 µM (inactive) each time. In addition, the Kd in [5], in assay [6], in assay [7], in [8] and in [9] was > 30 µM (inactive) each time.
As to `C=CC(=O)Nc1cc(Nc2nccc(-c3cn(C)c4ccccc34)n2)c(OC)cc1N(C)CCN(C)C` [OSIMERTINIB], the Kd (in assay [1]; on LIM domain kinase 1; in assay [2]; in [3]; on Activin receptor type-1B; in assay [4]) was > 30 µM (inactive) throughout. Besides, the Kd in assay [5], in [6], in assay [7] and in assay [9] was > 30 µM (inactive) in each case.
